Source: patent US8268990B2, “Compounds” (AstraZeneca AB, priority 2007, dated 2012)
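Also: SEAP driven by an NFkB-responsive composite promoter, pEC50 read at half of each compound's own maximal SEAP induction.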

What follows are molecules tested against T1, Recombinant human TLR7 (Homo sapiens, UniProt Q9NYK1) (assay: Human TLR7 Assay (SEAP reporter)). Settings: HEK293 cell line stably expressing human TLR7 and pNiFty2-SEAP reporter; SEAP induction after overnight incubation at 37° C., 0.1% (v/v) DMSO.
T1 construct: expressed in transfected cells; host or cells: HEK293 cell line stably expressing the pNiFty2-SEAP reporter plasmid; TLR7 in vector pUNO, blasticidin selection
T1 sequence (Q9NYK1 27-1049): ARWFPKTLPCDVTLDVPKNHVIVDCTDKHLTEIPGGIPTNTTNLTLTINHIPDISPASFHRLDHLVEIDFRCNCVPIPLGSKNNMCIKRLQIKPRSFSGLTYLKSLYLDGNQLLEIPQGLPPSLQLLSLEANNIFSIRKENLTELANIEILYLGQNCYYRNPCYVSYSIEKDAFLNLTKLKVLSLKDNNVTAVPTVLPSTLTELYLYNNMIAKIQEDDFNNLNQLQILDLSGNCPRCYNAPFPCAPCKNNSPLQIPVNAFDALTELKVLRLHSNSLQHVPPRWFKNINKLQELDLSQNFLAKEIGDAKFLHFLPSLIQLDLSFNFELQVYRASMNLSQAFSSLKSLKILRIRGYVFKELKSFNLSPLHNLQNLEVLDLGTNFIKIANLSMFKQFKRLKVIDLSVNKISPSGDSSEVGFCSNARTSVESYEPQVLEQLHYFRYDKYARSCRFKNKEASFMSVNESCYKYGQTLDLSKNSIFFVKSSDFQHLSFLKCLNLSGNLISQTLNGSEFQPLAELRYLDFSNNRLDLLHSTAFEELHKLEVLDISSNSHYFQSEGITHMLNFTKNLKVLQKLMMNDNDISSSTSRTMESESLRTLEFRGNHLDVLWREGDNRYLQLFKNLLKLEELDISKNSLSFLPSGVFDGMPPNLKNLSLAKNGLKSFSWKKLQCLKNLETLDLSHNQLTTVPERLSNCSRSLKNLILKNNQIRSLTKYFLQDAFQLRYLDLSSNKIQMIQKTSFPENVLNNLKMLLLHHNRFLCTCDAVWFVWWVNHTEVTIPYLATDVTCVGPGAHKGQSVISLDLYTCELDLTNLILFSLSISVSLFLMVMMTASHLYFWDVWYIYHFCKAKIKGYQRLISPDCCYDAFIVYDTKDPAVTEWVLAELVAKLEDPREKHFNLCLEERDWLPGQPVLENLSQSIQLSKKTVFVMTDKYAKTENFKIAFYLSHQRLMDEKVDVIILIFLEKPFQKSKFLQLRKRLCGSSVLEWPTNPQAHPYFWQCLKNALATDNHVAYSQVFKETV
Type: cell-based
From the text: Recombinant human TLR7 was stably expressed in a HEK293 cell line already stably expressing the pNiFty2-SEAP reporter plasmid; integration of the reporter gene was maintained by selection with the antibiotic zeocin. The most common variant sequence of human TLR7 (represented by the EMBL sequence AF240467) was cloned into the mammalian cell expression vector pUNO and transfected into this reporter cell-line. Transfectants with stable expression were selected using the antibiotic blasticidin. In this reporter cell-line, expression of secreted alkaline phosphatase (SEAP) is controlled by an NFkB/ELAM-1 composite promoter comprising five NFkB sites combined with the proximal ELAM-1 promoter. TLR signaling leads to the translocation of NFkB and activation of the promoter results in expression of the SEAP gene. TLR7-specific activation was assessed by determining the level of SEAP produced following overnight incubation of the cells at 37° C. with the standard compound in the presence of 0.1% (v/v) dimethylsulfoxide (DMSO). Concentration dependent induction of SEAP production by compounds was expressed as the concentration of compound which produced half of the maximal level of SEAP induction for that compound (pEC50).
In the case of `CCCCCNc1nc(N)nc(C)c1CCCNCc1cccc(CC(=O)OC)c1` [Example 1, Methyl 2-(3-((3-(2-Amino-4-methyl-6-(pentylamino)pyrimidin-5-yl)propylamino)methyl)phenyl)acetate], the EC50 is reported as 0.501 µM. With `CCCCCNc1nc(N)nc(C)c1CCCNCc1ccc(CC(=O)OC)cc1` [Example 2, Methyl 2-(4-((3-(2-amino-4-methyl-6-(pentylamino)pyrimidin-5-yl)propylamino)methyl)phenyl)acetate] the EC50 was 1 µM. With `CCCCCNc1nc(N)nc(C)c1CCCN(Cc1cccc(CC(=O)OC)c1)C(=O)CN(C)C` [Example 3, Methyl 2-(3-((N-(3-(2-amino-4-methyl-6-(pentylamino)pyrimidin-5-yl)propyl)-2-(dimethylamino)acetamido)methyl)phenyl)acetate] the EC50 was 0.631 µM. For `CCCCCNc1nc(N)nc(C)c1CCCN(Cc1ccc(CC(=O)OC)cc1)C(=O)CN(C)C` [Example 4, Methyl 2-(4-((N-(3-(2-amino-4-methyl-6-(pentylamino)pyrimidin-5-yl)propyl)-2-(dimethylamino)acetamido)methyl)phenyl)acetate], the EC50 was 0.398 µM. In the case of `CCCCCNc1nc(N)nc(C)c1CCCN(Cc1cccc(CC(=O)OC)c1)C(=O)CN1CCC[C@H]1C(=O)OC` [Example 5, (S)-Methyl 1-(2-((3-(2-amino-4-methyl-6-(pentylamino)pyrimidin-5-yl)propyl)(3-(2-methoxy-2-oxoethyl)benzyl)amino)-2-oxoethyl)pyrrolidine-2-carboxylate], the EC50 is reported as 0.631 µM. For `CCCCCNc1nc(N)nc(C)c1CCCN(Cc1cccc(CC(=O)OC)c1)C(=O)CN1CCC(O)CC1` [Example 7, Methyl 2-(3-((N-(3-(2-amino-4-methyl-6-(pentylamino)pyrimidin-5-yl)propyl)-2-(4-hydroxypiperidin-1-yl)acetamido)methyl)phenyl)acetate], the EC50 was 2.51 µM. `CCCCCNc1nc(N)nc(C)c1CCCN(Cc1cccc(CC(=O)OC)c1)C(=O)CN1CCCN(C(C)=O)CC1` [Example 8, Methyl 2-(3-((2-(4-acetyl-1,4-diazepan-1-yl)-N-(3-(2-amino-4-methyl-6-(pentylamino)pyrimidin-5-yl)propyl)acetamido)methyl)phenyl)acetate] showed an EC50 of 2.51 µM. Work on `CCCCCNc1nc(N)nc(C)c1CCCN(Cc1cccc(CC(=O)OC)c1)C(=O)CN1CCN(CCCN(C)C)CC1` [Example 9, Methyl 2-(3-((N-(3-(2-amino-4-methyl-6-(pentylamino)pyrimidin-5-yl)propyl)-2-(4-(3-(dimethylamino)propyl)piperazin-1-yl)acetamido)methyl)phenyl)acetate] yielded an EC50 of 3.98 µM. With `CCCCCNc1nc(N)nc(C)c1CCCN(Cc1cccc(CC(=O)OC)c1)C(=O)CN(C)CCO` [Example 10] the EC50 was 1.58 µM. `CCCCCNc1nc(N)nc(C)c1CCCN(Cc1cccc(CC(=O)OC)c1)C(=O)CCC(=O)OC` [Example 11, Methyl 4-((3-(2-amino-4-methyl-6-(pentylamino)pyrimidin-5-yl)propyl)(3-(2-methoxy-2-oxoethyl)benzyl)amino)-4-oxobutanoate] gave an EC50 of 1 µM. With `CCCCCNc1nc(N)nc(C)c1CCCN(Cc1cccc(CC(=O)OC)c1)C(=O)CCCN(C)C` [Example 12, Methyl 2-(3-((N-(3-(2-amino-4-methyl-6-(pentylamino)pyrimidin-5-yl)propyl)-4-(dimethylamino)butanamido)methyl)phenyl)acetate] the EC50 was 1.58 µM. In the case of `CCCCCNc1nc(N)nc(C)c1CCCN(Cc1cccc(CC(=O)OC)c1)S(C)(=O)=O` [Example 13, Methyl 2-(3-((N-(3-(2-amino-4-methyl-6-(pentylamino)pyrimidin-5-yl)propyl)methylsulfonamido)methyl)phenyl)acetate], the EC50 is reported as 2.51 µM. `CCCCCNc1nc(N)nc(C)c1CCCN(Cc1cccc(CC(=O)OC)c1)S(=O)(=O)c1cn(C)cn1` [Example 14, Methyl 2-(3-((N-(3-(2-amino-4-methyl-6-(pentylamino)pyrimidin-5-yl)propyl)-1-methyl-1H-imidazole-4-sulfonamido)methyl)phenyl)acetate] showed an EC50 of 1.26 µM. `CCCCCNc1nc(N)nc(C)c1CCCN(Cc1ccc(CC(=O)OC)cc1)C(=O)CN(C)CCOC` [Example 15, Methyl 2-(4-((N-(3-(2-amino-4-methyl-6-(pentylamino)pyrimidin-5-yl)propyl)-2-((2-methoxyethyl)(methyl)amino)acetamido)methyl)phenyl)acetate] gave an EC50 of 0.398 µM. Work on `CCCCCNc1nc(N)nc(C)c1CCCCNCc1cccc(CC(=O)OC)c1` [Example 17, Methyl 2-(3-((4-(2-amino-4-methyl-6-(pentylamino)pyrimidin-5-yl)butylamino)methyl)phenyl)acetate] yielded an EC50 of 1 µM. Work on `CCCC[C@@H](CCO)Nc1nc(N)nc(C)c1CCCNCc1ccc(CC(=O)OC)cc1` [Example 18, (S)-Methyl 2-(4-((3-(2-amino-4-(1-hydroxyheptan-3-ylamino)-6-methylpyrimidin-5-yl)propylamino)methyl)phenyl)acetate] yielded an EC50 of 1.58 µM. Work on `CCCC[C@@H](CCO)Nc1nc(N)nc(C)c1CCCN(Cc1ccc(CC(=O)OC)cc1)C(=O)CN(C)C` [Example 19, (S)-Methyl 2-(4-((N-(3-(2-amino-4-(1-hydroxyheptan-3-ylamino)-6-methylpyrimidin-5-yl)propyl)-2-(dimethylamino)acetamido)methyl)phenyl)acetate] yielded an EC50 of 2.51 µM. For `CCCCCNc1nc(N)nc(C)c1Cc1cccc(CC(=O)OC)c1` [Example 20, Methyl 2-(3-((2-amino-4-methyl-6-(pentylamino)pyrimidin-5-yl)methyl)phenyl)acetate], the EC50 was 2 µM. `CCCCCNc1nc(N)nc(C)c1Cc1ccc(CC(=O)OC)cc1OC` [Example 21, Methyl 2-(4-((2-amino-4-methyl-6-(pentylamino)pyrimidin-5-yl)methyl)-3-methoxyphenyl)acetate] gave an EC50 of 0.0158 µM. `CCCCCNc1nc(N)nc(C)c1Cc1ccc(CC(=O)OC)cc1F` [Example 22, Methyl 2-(4-((2-amino-4-methyl-6-(pentylamino)pyrimidin-5-yl)methyl)-3-fluorophenyl)acetate] was tested, and the EC50 was 0.631 µM. `CCCCCNc1nc(N)nc(C)c1CCCNC(=O)Cc1ccc(CC(=O)OC)cc1` [Example 23, Methyl 2-(4-(2-(3-(2-amino-4-methyl-6-(pentylamino)pyrimidin-5-yl)propylamino)-2-oxoethyl)phenyl)acetate] gave an EC50 of 1 µM. `CCCCCNc1nc(N)nc(C)c1CCCNC(=O)Cc1cccc(CC(=O)OC)c1` [Example 24, Methyl 2-(3-(2-(3-(2-amino-4-methyl-6-(pentylamino)pyrimidin-5-yl)propylamino)-2-oxoethyl)phenyl)acetate] showed an EC50 of 1 µM. `CCCCCNc1nc(N)nc(C)c1CCCNCc1cccc(OCC(=O)OC)c1` [Example 25, Methyl 2-(3-((3-(2-amino-4-methyl-6-(pentylamino)pyrimidin-5-yl)propylamino)methyl)phenoxy)acetate] gave an EC50 of 0.794 µM. In the case of `CCCCCNc1nc(N)nc(C)c1CCCN(Cc1ccc(CC(=O)OC)cc1)C(=O)CN1CCCC(c2ccc(S(C)(=O)=O)cc2)C1` (stereo not shown) [Example 26, Methyl 2-(4-((N-(3-(2-amino-4-methyl-6-(pentylamino)pyrimidin-5-yl)propyl)-2-(3-(4-(methylsulfonyl)phenyl)piperidin-1-yl)acetamido)methyl)phenyl)acetate], the EC50 is reported as 0.794 µM. Work on `CCCCCNc1nc(N)nc(C)c1CCCN(Cc1ccc(CC(=O)OC)cc1)C(=O)CN1CCOCC1` [Example 27, Methyl 2-(4-((N-(3-(2-amino-4-methyl-6-(pentylamino)pyrimidin-5-yl)propyl)-2-morpholinoacetamido)methyl)phenyl)acetate] yielded an EC50 of 2 µM. `CCCCCNc1nc(N)nc(C)c1CCCN(Cc1ccc(CC(=O)OC)cc1)C(=O)CN1CCC(c2ccccc2)CC1` [Example 28, Methyl 2-(4-((N-(3-(2-amino-4-methyl-6-(pentylamino)pyrimidin-5-yl)propyl)-2-(4-phenylpiperidin-1-yl)acetamido)methyl)phenyl)acetate] showed an EC50 of 1.26 µM. `CCCCCNc1nc(N)nc(C)c1CCCN(Cc1ccc(CC(=O)OC)cc1)C(=O)CN1CCCCC1` [Example 29, Methyl 2-(4-((N-(3-(2-amino-4-methyl-6-(pentylamino)pyrimidin-5-yl)propyl)-2-(piperidin-1-yl)acetamido)methyl)phenyl)acetate] was tested, and the EC50 was 0.794 µM. Work on `CCC[C@@H](CO)Nc1nc(N)nc(C)c1Cc1ccc(CC(=O)OC)cc1OC` [Example 30, (S)-Methyl 2-(4-((2-amino-4-(1-hydroxypentan-2-ylamino)-6-methylpyrimidin-5-yl)methyl)-3-methoxyphenyl)acetate] yielded an EC50 of 0.0316 µM.
